This is an account of results in patent US12162848B2, “Inhibitors of protein tyrosine phosphatase, compositions, and methods of use” (BRISTOL-MYERS SQUIBB COMPANY, priority 2022, dated 2024).

In one assay the test system is B16-F10 cells. The experiment in a line: Cell proliferation assay (CellTiter-Glo) in IFN-gamma treated B16-F10 cells. In kind it is cell-based. As to conditions: 120 h, mouse IFN-gamma 10 ng/mL, read-out: PTPN2 Prolif 5d B16F10 EC50. Background: ATP-based viability assays read luminescence as a measure of living cells.
The target of another assay is T1, PTPN2 enzyme (Homo sapiens, UniProt P17706).
T1 sequence (P17706 1-415): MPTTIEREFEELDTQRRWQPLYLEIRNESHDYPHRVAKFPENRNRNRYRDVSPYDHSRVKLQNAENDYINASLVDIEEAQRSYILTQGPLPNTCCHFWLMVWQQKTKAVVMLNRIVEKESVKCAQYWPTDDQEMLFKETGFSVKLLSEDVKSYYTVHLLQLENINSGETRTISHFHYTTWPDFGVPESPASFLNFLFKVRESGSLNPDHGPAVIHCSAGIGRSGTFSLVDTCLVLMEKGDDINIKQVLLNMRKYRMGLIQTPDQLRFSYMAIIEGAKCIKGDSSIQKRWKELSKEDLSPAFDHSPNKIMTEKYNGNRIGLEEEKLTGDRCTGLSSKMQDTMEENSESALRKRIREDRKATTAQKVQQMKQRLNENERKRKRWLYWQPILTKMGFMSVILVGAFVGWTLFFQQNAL
As to the kind of experiment: PhosphoSens PTPN2 biochemical assay. As to conditions: substrate AQT0264 20 μM, room temperature; read-out: PTPN2 BCHEM IC50. The method in brief:
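PhosphoSens fluorescence format with 20 μM final AQT0264 substrate and […] in 50 mM HEPES pH 7.5, 500 μM EGTA, […], 0.01% Brij-35, 1% glycerol, 1 mM DTT, 0.2 mg/mL BSA. Compounds in 3-fold dilution series; progress curves read (ex 360/em 480 nm) every 71 s for 1 h at room temperature.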

Assay [1] relates to phosphorylated STAT1 protein levels in B16-F10 cells. The experiment in a line: Phospho-STAT1 (Tyr701) HTRF assay in IFN-gamma treated B16-F10 cells. As to conditions: mouse IFN-gamma 100 ng/mL, 1 hour, read-out: pSTAT1 HTRF B16 EC50. It is filed as cell-based. The gist of the method: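 Mouse B16-F10 cells, 10,000/well, pretreated 1 h with compound (0.15% DMSO), then stimulated with mouse IFN-gamma at 100 ng/mL final for 1 h at 37 C. Phospho-STAT1 (Tyr701) measured by HTRF.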
A general note: Time-resolved FRET reads energy transfer from a long-lived donor to a nearby acceptor.

Turning to `CN1CCC(c2cc(O)c(N3CC(=O)NS3(=O)=O)c(F)c2)CC1` [EXAMPLE 4, 5-[2-fluoro-6-hydroxy-4-(1-methyl-4-piperidyl)phenyl]-1,1-dioxo-1,2,5-thiadiazolidin-3-one], the EC50 (in the assay with B16-F10 cells; in assay [1]) was at least 15000 nM throughout. Also, the IC50 at PTPN2 enzyme was 807 nM.

With `O=C1CN(c2c(O)cc(-c3ccccn3)cc2F)S(=O)(=O)N1` [EXAMPLE 7, 5-(2-fluoro-6-hydroxy-4-(pyridin-2-yl)phenyl)-1,2,5-thiadiazolidin-3-one 1,1-dioxide], the concentration giving a half-maximal response (EC50) (in the assay with B16-F10 cells; in assay [1]) was at least 15000 nM each time. Moreover, the IC50 at PTPN2 enzyme stood at 568 nM.

For `O=C1CN(c2c(O)cc(-c3ccc(Cc4ccccc4)cc3)cc2F)S(=O)(=O)N1` [EXAMPLE 10, 5-[4-(4-benzylphenyl)-2-fluoro-6-hydroxy-phenyl]-1,1-dioxo-1,2,5-thiadiazolidin-3-one], the concentration giving a half-maximal response (EC50) (with B16-F10 cells; in assay [1]) was at least 15000 nM throughout. Moreover, at PTPN2 enzyme, the IC50 turned out to be 6140 nM.

In the case of `O=C1CN(c2c(O)cc(CN3CCC(O)CC3)cc2F)S(=O)(=O)N1` [EXAMPLE 52, 5-[2-fluoro-6-hydroxy-4-[(4-hydroxy-1-piperidyl)methyl]phenyl]-1,1-dioxo-1,2,5-thiadiazolidin-3-one], the EC50 turned out to be 6940 nM with B16-F10 cells and 4610 nM in assay [1]. In addition, the IC50 on PTPN2 enzyme turned out to be 114 nM.

As for `CC(C)CCN1CCN(Cc2cc(O)c(N3CC(=O)NS3(=O)=O)c(F)c2)CC1` [EXAMPLE 32, 5-(2-fluoro-6-hydroxy-4-((4-isopentylpiperazin-1-yl)methyl)phenyl)-1,2,5-thiadiazolidin-3-one 1,1-dioxide], the EC50 (in the assay on B16-F10 cells; in assay [1]) was at least 15000 nM each time. Also, the concentration for half-maximal inhibition (IC50) at PTPN2 enzyme was found to be 65 nM.

Take `CC1(C)CCC[C@H](NCc2cc(O)c(N3CC(=O)NS3(=O)=O)c(F)c2)C1` [EXAMPLE 66, (S)-5-(4-(((3,3-dimethylcyclohexyl)amino)methyl)-2-fluoro-6-hydroxyphenyl)-1,2,5-thiadiazolidin-3-one 1,1-dioxide]: the results for the EC50 (with B16-F10 cells; in assay [1]) were 772 nM and 782 nM, respectively. Further, the IC50 at PTPN2 enzyme came to 42 nM.

Take `CN(C)C1CCN(Cc2cc(O)c(N3CC(=O)NS3(=O)=O)c(F)c2)CC1` [EXAMPLE 33, 5-(4-((4-(dimethylamino)piperidin-1-yl)methyl)-2-fluoro-6-hydroxyphenyl)-1,2,5-thiadiazolidin-3-one 1,1-dioxide]: the EC50 (in the assay on B16-F10 cells; in assay [1]) was at least 15000 nM in each case. Moreover, the 50% inhibitory concentration (IC50) at PTPN2 enzyme came to 94 nM.

For the molecule `CC(C)Cc1ccc(-c2cc(O)c(N3CC(=O)NS3(=O)=O)c(F)c2)cc1` [EXAMPLE 15, 5-[2-fluoro-6-hydroxy-4-(4-isobutylphenyl)phenyl]-1,1-dioxo-1,2,5-thiadiazolidin-3-one], the EC50 (in the assay on B16-F10 cells; in assay [1]) was at least 15000 nM each time. The concentration for half-maximal inhibition (IC50) at PTPN2 enzyme amounted to 2480 nM.

Turning to `O=C1CN(c2c(O)cc(CN[C@H]3CCCOC3)cc2F)S(=O)(=O)N1` [EXAMPLE 67, (S)-5-(2-fluoro-6-hydroxy-4-(((tetrahydro-2H-pyran-3-yl)amino)methyl)phenyl)-1,2,5-thiadiazolidin-3-one 1,1-dioxide], the EC50 in the assay with B16-F10 cells was 1670 nM; in assay [1], 2700 nM. Also, the IC50 on PTPN2 enzyme worked out at 126 nM.

On to `O=C1CN(c2c(O)cc(CN3CCOCC3)cc2F)S(=O)(=O)N1` [EXAMPLE 41, 5-(2-fluoro-6-hydroxy-4-(morpholinomethyl)phenyl)-1,2,5-thiadiazolidin-3-one 1,1-dioxide], for which the half-maximal effective concentration (EC50) came to 3560 nM in the assay on B16-F10 cells and 3380 nM in assay [1]. Also, the IC50 on PTPN2 enzyme worked out at 70 nM.

With `CS(=O)(=O)N1CCC[C@@H](NCc2cc(O)c(N3CC(=O)NS3(=O)=O)c(F)c2)C1` [EXAMPLE 72, 5-[2-fluoro-6-hydroxy-4-[[[(3R)-1-methylsulfonyl-3-piperidyl]amino]methyl]phenyl]-1,1-dioxo-1,2,5-thiadiazolidin-3-one], the EC50 in the assay on B16-F10 cells was 4690 nM; in assay [1], 3560 nM. Also, the IC50 on PTPN2 enzyme came to 54 nM.

Consider `O=C1CN(c2c(O)cc(-c3cc(-c4ccccc4)cs3)cc2F)S(=O)(=O)N1` [EXAMPLE 18, 5-[2-fluoro-6-hydroxy-4-(4-phenyl-2-thienyl)phenyl]-1,1-dioxo-1,2,5-thiadiazolidin-3-one], for which the concentration for a half-maximal effect (EC50) (in the assay on B16-F10 cells; in assay [1]) was at least 15000 nM throughout. In addition, the IC50 on PTPN2 enzyme amounted to 1190 nM.

`COc1cncc(-c2cc(O)c(N3CC(=O)NS3(=O)=O)c(F)c2)c1` [EXAMPLE 28, 5-[2-fluoro-6-hydroxy-4-(5-methoxy-3-pyridyl)phenyl]-1,1-dioxo-1,2,5-thiadiazolidin-3-one]: the EC50 with B16-F10 cells is 7820 nM; in assay [1] it was at least 15000 nM. For the same molecule, the 50% inhibitory concentration (IC50) on PTPN2 enzyme turned out to be 89 nM.

Consider `CC(C)CCN1CCCC(c2cc(O)c(N3CC(=O)NS3(=O)=O)c(F)c2)C1` (stereo not drawn) [EXAMPLE 5, 5-(2-fluoro-6-hydroxy-4-(1-isopentylpiperidin-3-yl)phenyl)-1,2,5-thiadiazolidin-3-one 1,1-dioxide], for which the 50% effective concentration (EC50) (in the assay on B16-F10 cells; in assay [1]) was at least 15000 nM throughout. At PTPN2 enzyme, the half-maximal inhibitory concentration (IC50) stood at 1020 nM.

For `O=C1CN(c2c(O)cc(CN[C@H]3CCCN(S(=O)(=O)C4CC4)C3)cc2F)S(=O)(=O)N1` [EXAMPLE 73, 5-[4-[[[(3S)-1-cyclopropylsulfonyl-3-piperidyl]amino]methyl]-2-fluoro-6-hydroxy-phenyl]-1,1-dioxo-1,2,5-thiadiazolidin-3-one], the EC50 in the assay on B16-F10 cells stood at 9840 nM; in assay [1] it was 7800 nM. The IC50 on PTPN2 enzyme stood at 10 nM.

In the case of `CC(C)(O)c1ccc(-c2cc(O)c(N3CC(=O)NS3(=O)=O)c(F)c2)cc1` [EXAMPLE 22, 5-[2-fluoro-6-hydroxy-4-[4-(1-hydroxy-1-methyl-ethyl)phenyl]phenyl]-1,1-dioxo-1,2,5-thiadiazolidin-3-one], the EC50 (with B16-F10 cells; in assay [1]) was at least 15000 nM in each case. At PTPN2 enzyme, the IC50 amounted to 179 nM.

As to `O=C1CN(c2c(O)cc(C3CCCNC3)cc2F)S(=O)(=O)N1` (stereo not drawn) [EXAMPLE 1, 5-(2-fluoro-6-hydroxy-4-(piperidin-3-yl)phenyl)-1,2,5-thiadiazolidin-3-one 1,1-dioxide], the half-maximal effective concentration (EC50) in the assay on B16-F10 cells was found to be 882 nM; in assay [1], 1280 nM. Further, at PTPN2 enzyme, the IC50 worked out at 119 nM.

As to `CCN1CCC(NCc2cc(O)c(N3CC(=O)NS3(=O)=O)c(F)c2)CC1` [EXAMPLE 40, 5-(4-(((1-ethylpiperidin-4-yl)amino)methyl)-2-fluoro-6-hydroxyphenyl)-1,2,5-thiadiazolidin-3-one 1,1-dioxide], the half-maximal effective concentration (EC50) in the assay on B16-F10 cells is 3260 nM; in assay [1] it was 2340 nM. The IC50 at PTPN2 enzyme worked out at 131 nM.

On to `O=C1CN(c2c(O)cc(CN[C@@H]3CCCOC3)cc2F)S(=O)(=O)N1` [EXAMPLE 64, (R)-5-(2-fluoro-6-hydroxy-4-(((tetrahydro-2H-pyran-3-yl)amino)methyl)phenyl)-1,2,5-thiadiazolidin-3-one 1,1-dioxide], for which the EC50 came out at 2720 nM with B16-F10 cells and 2180 nM in assay [1]. Besides, at PTPN2 enzyme, the IC50 was found to be 139 nM.

`O=C1CN(c2c(O)cc(CN[C@@H]3CCCN(S(=O)(=O)C4CC4)C3)cc2F)S(=O)(=O)N1` [EXAMPLE 74, 5-[4-[[[(3R)-1-cyclopropylsulfonyl-3-piperidyl]amino]methyl]-2-fluoro-6-hydroxy-phenyl]-1,1-dioxo-1,2,5-thiadiazolidin-3-one]: the EC50 in the assay with B16-F10 cells is 5650 nM; in assay [1] it was 11000 nM. In addition, at PTPN2 enzyme, the IC50 was found to be 17 nM.

With `NC1CCN(c2cc(O)c(N3CC(=O)NS3(=O)=O)c(F)c2)CC1` [EXAMPLE 84, 5-(4-(4-aminopiperidin-1-yl)-2-fluoro-6-hydroxyphenyl)-1,2,5-thiadiazolidin-3-one 1,1-dioxide], the concentration giving a half-maximal response (EC50) (in the assay on B16-F10 cells; in assay [1]) was at least 15000 nM throughout. In addition, the IC50 on PTPN2 enzyme stood at 745 nM.

Consider `Cc1cc(OCC2CC2)cc(-c2cc(O)c(N3CC(=O)NS3(=O)=O)c(F)c2)c1` [EXAMPLE 21, 5-[4-[3-(cyclopropylmethoxy)-5-methyl-phenyl]-2-fluoro-6-hydroxy-phenyl]-1,1-dioxo-1,2,5-thiadiazolidin-3-one], for which the EC50 (in the assay on B16-F10 cells; in assay [1]) was at least 15000 nM in each case. For the same molecule, the half-maximal inhibitory concentration (IC50) on PTPN2 enzyme was found to be 6960 nM.

`CNC(=O)[C@H]1CC[C@H](NCc2cc(O)c(N3CC(=O)NS3(=O)=O)c(F)c2)CC1` [EXAMPLE 58, (1r,4r)-4-((4-(1,1-dioxido-4-oxo-1,2,5-thiadiazolidin-2-yl)-3-fluoro-5-hydroxybenzyl)amino)-N-methylcyclohexane-1-carboxamide]: the EC50 with B16-F10 cells is at least 15000 nM; in assay [1] it was 5080 nM. The IC50 on PTPN2 enzyme came out at 376 nM.

On to `O=C1CN(c2c(O)cc(-c3ccc(CN4CCCC4)cc3)cc2F)S(=O)(=O)N1` [EXAMPLE 19, 5-[2-fluoro-6-hydroxy-4-[4-(pyrrolidin-1-ylmethyl)phenyl]phenyl]-1,1-dioxo-1,2,5-thiadiazolidin-3-one], for which the 50% effective concentration (EC50) (in the assay on B16-F10 cells; in assay [1]) was at least 15000 nM in each case. Besides, the IC50 at PTPN2 enzyme stood at 483 nM.

For orientation: EC50 means the concentration at which the effect is half-maximal. For orientation: IC50 means the concentration that gives 50% inhibition.
